Conditions in one series: not given
As a reminder, the logP is a log measure of how a compound divides between an organic and an aqueous phase. Take `Cc1cccc(C)c1NC(=O)C1CNCCN1` (stereo not drawn): the logP is 0.38.

Consider `C=CC=O`, for which the logP was -0.01.

`ClC(Cl)(Cl)Cl` yielded a logP of 2.83.

On to `CCCCC(N)C(=O)O` (stereo not drawn), for which the log partition coefficient (logP) is -1.53.

Consider `CC(=O)Nc1cccc(C(C)=O)c1`, for which the logP was determined as 1.06.

`c1ccc2nc3ccccc3cc2c1` had a logP of 3.4.

`COc1c(C)ncc(CO)c1CO` showed a logP of -0.1.

`O=C(O)c1ccccn1` gave a logP of 0.72.

The compound `CCOc1ccc2nccnc2c1` gave a log partition coefficient (logP) of 2.22.

For the compound `O=Cc1ccc[nH]1`, the log partition coefficient (logP) amounted to 0.64.

`ClCCl` yielded a logP of 1.25.

`CCCCCCNC(=O)c1ccc(S(N)(=O)=O)cc1`: the logP was found to be 2.05.

On to `CCOC(=O)C(=Cc1ccc(OC)cc1)C(C)=O`, for which the logP turned out to be 2.46.

Turning to `NC(=S)c1ccccn1`, the logP was found to be 1.24.

With `c1ccoc1`, the lipophilicity (logP) was determined as 1.34.

In turn, `CCOC(=O)C(Cl)(Cl)Cl` returned a log partition coefficient (logP) of 2.39.

For `Cc1cccc(OCc2ccccc2)n1`, the log partition coefficient (logP) was found to be 3.43.

`CCCCCCOc1ccccc1NC(=O)OCCN1CCCCC1` had a lipophilicity (logP) of 5.29.

For `COc1ccc(C=O)cc1O`, the logP was 0.97.

Regarding `CCCCCC(=O)O`, the logP was 1.92.

In turn, `CC(=O)Oc1ccccc1[N+](=O)[O-]` displayed a lipophilicity (logP) of 1.55.

Regarding `COc1cccc(S(C)(=O)=O)c1`, the logP is 0.76.

Take `CCC(C)C(NC(=O)C(CCCCN)NC(C)=O)C(=O)NC(Cc1ccccc1)C(N)=O` (stereo not drawn): the logP turned out to be 0.65.

For `CCCCC[N+](=O)[O-]`, the logP turned out to be 2.01.

The compound `COc1ccccc1[N+](=O)[O-]` yielded a logP of 1.73.

Take `O=C1C=C(N2CC2)C(=O)C(N2CC2)=C1N1CC1`: the logP is -0.13.

As for `CN(C)C(=O)Nc1cccc(N)c1`, the logP is -0.1.

`Oc1cc(Cl)c(Cl)cc1Cl` showed a log partition coefficient (logP) of 3.72.

Take `COP(=S)(Oc1cc(Cl)c(Br)cc1Cl)c1ccccc1` (stereo not drawn): the logP worked out at 6.31.

For the compound `c1ccc(-c2cccs2)cc1`, the lipophilicity (logP) was 3.74.

`O=C1NCN(c2ccccc2)C12CCN(CCCC(c1ccc(F)cc1)c1ccc(F)cc1)CC2` gave a lipophilicity (logP) of 5.86.

As for `O=C(O)Cc1ccc(F)cc1`, the logP was determined as 1.55.

`Clc1ccc(-c2cc(Cl)c(Cl)cc2Cl)cc1Cl` showed a logP of 7.12.

Take `CN(C)C(=O)Nc1ccc(Cl)cc1`: the logP came out at 1.94.

`Cc1cc(-c2ccc(N)c(C)c2)ccc1N` gave a log partition coefficient (logP) of 2.34.

`COC(C)=O` registered a lipophilicity (logP) of 0.18.

`Oc1ccc(O)c(Cl)c1`: the logP is 1.4.

`Cc1ccc(O)c(O)c1` had a log partition coefficient (logP) of 1.37.

With `c1ccc2[nH]cnc2c1`, the log partition coefficient (logP) is 1.32.

Consider `CCCC(=NOCC)C1C(=O)CC2(CCCCC2C)OC1=O` (stereo not drawn), for which the logP came to 3.9.

As for `C=CC=C`, the logP is 1.99.

Compound `CCOc1cccc(NC(C)=O)c1` had a log partition coefficient (logP) of 1.82.

`C=C(CC(=O)c1ccc(-c2ccccc2Cl)cc1)C(=O)O` showed a logP of 3.32.

`OCCCCc1ccccn1` yielded a logP of 0.86.

Consider `COc1cc2c(c(OC)c1O)-c1ccc(OC)c(=O)cc1[C@@H](NC(=O)C(F)(F)F)CC2`, for which the log partition coefficient (logP) came to 1.67.

In turn, `OCc1cccc(O)c1` returned a logP of 0.49.

Compound `Cc1ccc(C)[nH]1` had a logP of 1.47.

Take `CC(C)CCOC(=O)c1cc(O)c(O)c(O)c1`: the lipophilicity (logP) came to 2.8.

Turning to `Cc1cccc(OCC(O)CNC(C)C)c1` (stereo not drawn), the log partition coefficient (logP) came out at 1.93.

`COc1ccc(C)cc1N` yielded a logP of 1.74.

`CCC(=O)C1(c2cccc(OC(=O)OCC(C)C)c2)CCN(C)CC1` showed a lipophilicity (logP) of 2.38.

`O=C(O)CCCN1C(=O)C=CC1=O` registered a logP of 0.4.

On to `CNC(=S)NCCSCc1c[nH]cn1`, for which the logP is 0.16.

As to `NC(=S)NN=Cc1ccccc1`, the logP was determined as 1.86.

On to `CCCCCNC(=O)c1ccc(S(N)(=O)=O)cc1`, for which the logP worked out at 1.51.

`CNC(=O)Oc1ccc2c(c1)[C@]1(C)CCN(C)[C@@H]1N2C` displayed a logP of 1.58.

For `CC(=O)Oc1c[nH]c2ccccc12`, the lipophilicity (logP) was determined as 2.01.

As for `S=C(NN=Cc1ccco1)Nc1ccccc1`, the logP worked out at 3.13.

Turning to `O=[N+]([O-])C=Cc1ccccc1`, the logP came to 2.11.

For the compound `CC(=O)OCc1ccc([N+](=O)[O-])cc1`, the logP came out at 1.73.

In the case of `Clc1cc(Cl)c(-c2c(Cl)cc(Cl)cc2Cl)c(Cl)c1`, the lipophilicity (logP) was determined as 7.55.

On to `Cc1ncc([N+](=O)[O-])n1CCNC(=O)OC(C)C`, for which the logP amounted to 0.88.

`O=[N+]([O-])c1ccc(CCO)cc1` displayed a log partition coefficient (logP) of 1.12.

Turning to `COc1cc(Cl)c(Cl)cc1O`, the logP came out at 3.26.

`Cc1[nH]ccc(=O)c1O`: the log partition coefficient (logP) was -0.49.

As to `CC(C)C(O)C(C(=O)O)c1ccc(-c2ccccc2)cc1` (stereo not drawn), the logP is 3.84.

`CCCC(C)O` (stereo not drawn) yielded a logP of 1.19.

With `CCCCCCCCNC(=O)c1[nH]nc(C)c1[N+](=O)[O-]`, the log partition coefficient (logP) came out at 3.48.

In the case of `CCOC(=O)C(C#N)=Cc1ccccc1`, the logP turned out to be 2.43.

Regarding `C#Cc1ccccc1`, the log partition coefficient (logP) was 2.53.

`O=C(NO)Nc1ccccc1` came in with a lipophilicity (logP) of 0.41.

In the case of `Nc1ncnc2c1ncn2[C@@H]1O[C@@H]2COP(=O)(O)O[C@H]2[C@H]1O`, the lipophilicity (logP) was -2.96.

In turn, `Nc1nc(N)c2nc(-c3ccccc3)c(N)nc2n1` gave a log partition coefficient (logP) of 0.98.

Compound `NS(=O)(=O)c1ccc2c(c1)S(=O)(=O)NC=N2` gave a lipophilicity (logP) of -0.7.

With `CCOC(=O)NC`, the logP worked out at 0.34.

Regarding `NC(=O)Cc1ccncc1`, the logP is -0.65.

For `O=C(CCCN1CCC(n2c(=O)[nH]c3ccccc32)CC1)c1ccc(F)cc1`, the lipophilicity (logP) is 3.91.

`CCCCC(C#N)(Cn1ccnc1)c1ccccc1` (stereo not drawn) yielded a lipophilicity (logP) of 2.94.

Regarding `CC1(C)C=Cc2ccccc2O1`, the logP was 3.31.

In turn, `O=C(O)c1ccccc1Nc1ccccc1` yielded a logP of 4.36.

Turning to `CCC(=O)OC1(c2ccccc2)CC(C)N(C)CC1C` (stereo not drawn), the logP worked out at 3.13.

With `COc1cc(SC)c(OC)cc1CC(C)N` (stereo not drawn), the lipophilicity (logP) is 2.17.

Regarding `Nc1ccc(-c2ccc(N)c(Cl)c2)cc1Cl`, the log partition coefficient (logP) was found to be 3.51.

For the compound `Clc1ccccn1`, the logP stood at 1.22.

Consider `CN(O)C(N)=O`, for which the logP was -0.46.

As for `Cc1ccc2cc(C)c(C)cc2c1`, the logP was found to be 4.73.

`CC1(O)CC23C(O)C1CCC2(O)C(C)(O)C1C2OC2C(C)(C)C1(O)C(O)C3O` (stereo not drawn) registered a lipophilicity (logP) of -0.57.

With `OCCCCCc1ccccn1`, the lipophilicity (logP) came to 1.28.

In turn, `Brc1ccsc1` returned a log partition coefficient (logP) of 2.62.

As to `NC1=CC(=O)c2ccccc2C1=O`, the logP turned out to be 1.77.

In the case of `NS(=O)(=O)c1ccc2c(c1)S(=O)(=O)NCN2`, the lipophilicity (logP) is -0.52.

As for `Cc1cc(Br)cnc1NS(=O)(=O)c1ccc(N)cc1`, the logP is 2.05.

`OCCBr` displayed a logP of 0.23.

Take `COc1ccc2cc(C(C)C(=O)OCC(=O)N(C)CCO)ccc2c1` (stereo not drawn): the log partition coefficient (logP) came to 2.01.

`C1=CC=CCC=C1` returned a log partition coefficient (logP) of 2.63.

The compound `C[C@]12CC[C@H](O)CC1=CC[C@@H]1[C@@H]2CC[C@]2(C)C(=O)CC[C@@H]12` came in with a log partition coefficient (logP) of 3.23.

With `O=NN1CCOCC1`, the log partition coefficient (logP) is -0.44.

Regarding `O=[N+]([O-])c1ccc2c(c1)c([N+](=O)[O-])cc[n+]2[O-]`, the logP came out at 0.9.

`Brc1c(Br)c(Br)c(Br)c(Br)c1Br`: the logP amounted to 6.07.

`N#CCC(=O)NC(CO)C(O)c1ccc([N+](=O)[O-])cc1` (stereo not drawn) displayed a lipophilicity (logP) of -0.22.

`Cc1ccc(C(C)C)cc1`: the logP worked out at 4.1.

Regarding `Nc1ncc([N+](=O)[O-])s1`, the logP is 0.83.

In the case of `CCC(=O)c1ccccc1`, the lipophilicity (logP) was 2.19.

On to `O=C(Nc1ccn(C2OC(CO)C(O)C2O)c(=O)n1)c1ccccc1` (stereo not drawn), for which the logP amounted to 0.3.

Consider `O=C(NC(CO)C(O)c1ccc([N+](=O)[O-])cc1)C(F)F` (stereo not drawn), for which the logP was determined as 0.42.

For the compound `OCC(Cl)(Cl)Cl`, the log partition coefficient (logP) turned out to be 1.42.

Turning to `CS(=O)(=O)c1cccc(-c2nc(N)nc(N)n2)c1`, the log partition coefficient (logP) is 0.29.

Regarding `CC(=O)N(C)N=Nc1ccc(C(N)=O)cc1`, the logP is 1.37.

In turn, `COc1cc(O)cc(OC)c1` returned a logP of 1.64.

`N#Cc1cccc(C#N)c1` returned a logP of 0.8.

The compound `CCCNC(C)CC` (stereo not drawn) showed a logP of 1.91.

On to `COC(=O)C(Cc1ccccc1)NC(C)=O` (stereo not drawn), for which the log partition coefficient (logP) stood at 0.92.

`CNC(=O)Oc1cccc2ccccc12` gave a lipophilicity (logP) of 2.36.

`COc1c(O)c(C)c(C)c(O)c1OC` came in with a log partition coefficient (logP) of 1.6.

The compound `NNC(=O)c1ccccc1Br` returned a logP of 0.26.

In turn, `OC(Cn1ccnc1)c1ccc(CCc2ccccc2)cc1` (stereo not drawn) gave a lipophilicity (logP) of 3.4.

In turn, `O=C(O)CNC(=O)c1ccccc1` registered a lipophilicity (logP) of 0.31.

`O=C(O)c1cccc(Cl)c1` registered a logP of 2.68.

For the compound `O=C1C=CC(=NBr)C=C1`, the logP was determined as 1.12.

With `CCC(C)C(NCc1ccccc1)C(=O)O` (stereo not drawn), the logP was -0.27.

`CC(=O)NC(Cc1ccccc1)C(N)=O` (stereo not drawn) came in with a logP of -0.04.

With `NCCCN`, the logP is -1.43.

`O=C(O)Cc1ccccc1Nc1cc(Cl)ccc1Cl` gave a logP of 4.94.

`CC1=C(N2CC2)C(=O)C(CCOC(N)=O)=C(N2CC2)C1=O`: the logP is 0.16.

In turn, `CC(C)CCOc1cc(N)ccc1C(=O)O` came in with a log partition coefficient (logP) of 2.3.

Consider `CCCCCOC(=O)c1ccc(N)cc1`, for which the lipophilicity (logP) amounted to 3.48.

`CN(C)c1ccc(C(=C2C=CC(=[N+](C)C)C=C2)c2ccccc2)cc1.[Cl-]` yielded a logP of 0.62.

As to `COc1ccc(OCC(=O)O)cc1`, the log partition coefficient (logP) was 1.23.

`NC(=O)CCCc1ccccn1` gave a logP of -0.01.

With `CCCCOCCOCCO`, the log partition coefficient (logP) was 0.56.

`O=C(NC(=O)c1ccccc1O)c1ccccc1` came in with a logP of 1.38.

Compound `Cc1cc(Cl)cc(Cl)c1NC1=NCCN1` gave a logP of 2.38.

The compound `CN(C)c1ccc2c(c1)C(=O)N(O)C2=O` gave a lipophilicity (logP) of 1.27.

The compound `FC(F)(F)c1nc2ccc(Cl)cc2[nH]1` yielded a lipophilicity (logP) of 3.39.

`NNC(=O)c1ccc([N+](=O)[O-])cc1` returned a logP of 0.35.

`O=C1c2ccccc2C(=O)N1SC(Cl)(Cl)Cl` had a logP of 2.85.

For `OCCc1ccncc1`, the lipophilicity (logP) was 0.1.

The series is the same for the next values; noted with them: pH 5.0.
What is called logD is the decadic logarithm of the distribution of all forms, ionised or not, between an organic phase and buffer at a given pH. The low end stands for lower lipophilicity, the high end for higher lipophilicity. With `N=C(NCCCCCCNC(=N)NC(=N)Nc1ccc(Cl)cc1)NC(=N)Nc1ccc(Cl)cc1`, the logD came out at 0.08.

These data come from the OPERA property sets (Mansouri et al. 2018).
